Publication PMC9064246 (RSC Advances, 2019)

Target: T1, Lactobacillus reuteri 121 inulosucrase (LrInu; InuΔ699His) (Limosilactobacillus reuteri, UniProt Q8GP32)
T1 sequence (Q8GP32 37-699 limits assumed): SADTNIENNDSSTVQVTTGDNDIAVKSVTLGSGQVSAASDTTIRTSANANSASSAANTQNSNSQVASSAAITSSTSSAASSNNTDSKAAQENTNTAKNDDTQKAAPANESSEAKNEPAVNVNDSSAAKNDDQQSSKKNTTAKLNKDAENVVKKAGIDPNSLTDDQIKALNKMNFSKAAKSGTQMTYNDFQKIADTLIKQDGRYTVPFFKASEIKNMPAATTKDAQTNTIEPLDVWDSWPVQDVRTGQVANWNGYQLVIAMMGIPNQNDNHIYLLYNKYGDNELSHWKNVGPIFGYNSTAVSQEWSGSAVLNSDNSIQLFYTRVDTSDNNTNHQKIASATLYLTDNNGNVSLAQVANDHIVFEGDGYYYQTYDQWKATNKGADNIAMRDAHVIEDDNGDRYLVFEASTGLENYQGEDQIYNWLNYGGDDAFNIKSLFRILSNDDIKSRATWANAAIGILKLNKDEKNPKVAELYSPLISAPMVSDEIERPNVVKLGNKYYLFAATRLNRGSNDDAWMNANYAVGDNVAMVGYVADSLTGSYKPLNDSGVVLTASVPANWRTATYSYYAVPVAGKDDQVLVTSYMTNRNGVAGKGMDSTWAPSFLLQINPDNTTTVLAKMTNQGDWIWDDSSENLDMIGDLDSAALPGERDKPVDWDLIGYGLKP
Assay: FOS synthesis, TLC / HPLC / MALDI-TOF MS
Format: biochemical
Conditions: 0.5 M sucrose, 5 U/mL enzyme, 50 mM acetate pH 5.5, 30 °C, 24 h

OC[C@H]1O[C@@](CO)(O[C@H]2O[C@H](CO)[C@@H](O)[C@H](O)[C@H]2O)[C@@H](O)[C@@H]1O [sucrose]
FOS synthesis, TLC / HPLC / MALDI-TOF MS: transglycosylation products of R483A, R483F, R483Y and R483W
